Measurements taken from patent US5106873A, “ACAT inhibitors” (priority 1990, dated 1992).

Columns and labels:
[1] = target: T1, acyl-CoA: cholesterol acyltransferase (ACAT) (Oryctolagus cuniculus, UniProt G1SFD9); assay: In vitro inhibition of ACAT (acylation of cholesterol by oleic acid) in rabbit intestinal microsomes; type: biochemical; conditions: radiolabeled oleic acid
T1 construct: tissue preparation containing rabbit intestinal microsomes; from tissue; host or cells: rabbit intestinal microsomes
T1 sequence (G1SFD9 1-524): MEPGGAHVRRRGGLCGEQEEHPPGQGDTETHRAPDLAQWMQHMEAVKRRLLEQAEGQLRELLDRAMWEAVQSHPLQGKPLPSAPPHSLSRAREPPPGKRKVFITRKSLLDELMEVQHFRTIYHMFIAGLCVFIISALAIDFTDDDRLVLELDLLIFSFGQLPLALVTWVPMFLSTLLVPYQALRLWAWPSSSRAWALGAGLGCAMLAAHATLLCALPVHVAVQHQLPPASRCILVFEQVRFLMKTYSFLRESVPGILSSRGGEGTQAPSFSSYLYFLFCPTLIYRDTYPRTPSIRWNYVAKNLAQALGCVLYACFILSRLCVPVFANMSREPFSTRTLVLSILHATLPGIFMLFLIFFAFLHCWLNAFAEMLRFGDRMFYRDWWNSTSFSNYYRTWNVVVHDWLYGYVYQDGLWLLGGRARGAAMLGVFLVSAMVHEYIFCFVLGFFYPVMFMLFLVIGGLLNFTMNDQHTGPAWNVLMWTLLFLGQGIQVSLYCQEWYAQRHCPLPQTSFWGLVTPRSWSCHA
Protocol: The ability of representative compounds of the present invention to inhibit ACAT was measured using an in vitro test more fully described in Field, F. J. and Salone, R. G., Biochemica et Biophysica, 712:557-570 (1982). The test assesses the ability of a test compound to inhibit the acylation of cholesterol by oleic acid by measuring the amount of radiolabeled cholesterol […] formed from radiolabeled oleic acid in a tissue preparation containing rabbit intestinal microsomes. The data appear in Table 1 where they are expressed in IC50 values; i.e., the concentration of test compound required to inhibit 50% expression of the enzyme.

[2] = In vivo screen designated APCC, cholesterol in rats fed PCC diet with cholic acid; parameters: species or system male Sprague-Dawley rats; conditions: blood cholesterol; PCC diet with 1% or 0.5% cholic acid; dosed at 4 PM, sacrificed at 8 AM; dose not stated
Excerpt: In one in vivo screen designated APCC, male Sprague-Dawley rats (200 to 225 g) were randomly divided into treatment groups and dosed at 4 PM with either vehicle (CMC/Tween) or suspensions of compounds in vehicle. The normal, chow diet was then replaced with the PCC diet with either 1% or 0.5% cholic acid, as indicated. The rats consumed this diet ad libitum during the night and were sacrificed at 8 AM to obtain blood samples for cholesterol analysis using standard procedures. Statistical differences between mean cholesterol values for the same vehicle were determined using analysis of variance followed by Fisher's least significant test.

Structure (SMILES) | IC50 [1] [nM] | % Change [2] [%]
CCCC(CCC)(CNC(=O)Nc1c(C(C)C)cccc1C(C)C)NC(=O)c1ccc(OC)cc1 [Example 4] | 96 | 
COc1ccc(CN[C@@H](CCSC)CNC(=O)Nc2c(C(C)C)cccc2C(C)C)cc1 [Example 7, (S)-(-)-N-[2,6-Bis(1-methylethyl)phenyl]-N'-[2-[[(4-methoxyphenyl)methyl]amino]-4-(methylthio)butyl]urea] |  | -31
COc1ccc(CN[C@H](CNC(=O)Nc2c(C(C)C)cccc2C(C)C)Cc2ccccc2)cc1 [Example 9, (S)-(-)-N-[2,6-Bis(1-methylethyl)phenyl]-N'-[2-[[(4-methoxyphenyl)methyl]amino]-3-phenylpropyl]urea] |  | -33
CC(C)c1cccc(C(C)C)c1NC(=O)NC[C@H](Cc1ccccc1)NCc1ccccc1O [Example 10] |  | -46

The next lines start with results.

IC50 [1] [nM] | Structure (SMILES) | % Change [2] [%]
510 | COc1ccc(C(=O)NC2(CNC(=O)Nc3c(C(C)C)cccc3C(C)C)CCCC2)cc1 [Example 5, N-[1-[[[[[2,6-bis(1-methylethyl)phenyl]amino]carbonyl]amino]methyl]cyclopentyl]-4-methoxybenzamide] | 
57 | COc1ccc(CN[C@H](CNC(=O)Nc2c(C(C)C)cccc2C(C)C)CC(C)C)cc1 [Example 6, (S)-(-)-N-[2,6-bis(1-methylethyl)phenyl]-N'-[2-[[(4-methoxyphenyl)methyl]amino]-4-methyl-pentyl]urea] | -25
85 | COc1ccc(CN[C@H](CNC(=O)Nc2c(C(C)C)cccc2C(C)C)C(C)C)cc1 [Example 8, (S)-(-)-N[2,6-Bis(1-methylethyl)phenyl]-N'-[2-[[(4-methoxyphenyl]methyl]amino]-3-methylbutyl]urea] | -17
